Results as given in the C3SDB collision cross section collection.

How the values were obtained:
[1] = instrument: TW, calibrated with polyalanine
[2] = instrument: DT, single field, calibrated with Agilent tune mix (Agilent)
[3] = instrument: DT, stepped-field
[4] = instrument: TW, calibrated with phosphatidylcholines (ESI+) and phosphatidylethanolamines (ESI-), doubly charged cardiolipins calibrated with poly-DL-…

| Compound | collision cross section (N2) ([1]; [M+H]+) | collision cross section (N2) ([4]; [M-H]-) | also measured |
| --- | --- | --- | --- |
| Cn1cnc(C[C@H](N)C(=O)O)c1 [1-Methylhistidine] | 129 Å² |  | collision cross section (N2) ([2]; [M+H]+): 133.1 Å²; collision cross section (N2) ([2]; [M-H]-): 139.64 Å² |
| O=C(O)[C@H](O)COP(=O)(O)O [3-Phosphoglyceric acid] |  |  | collision cross section (N2) ([1]; [M+Na]+): 134 Å² |
| O=C(O)[C@H](O)[C@@H](O)[C@H](O)[C@H](O)COP(=O)(O)O [6-Phosphogluconate] |  |  | collision cross section (N2) ([1]; [M+Na]+): 159 Å² |
| Nc1ncnc2c1ncn2[C@@H]1O[C@H](COP(=O)(O)OP(=O)(O)O)[C@@H](O)[C@H]1O [ADP] | 181 Å² |  |  |
| NC(=O)c1ncn([C@@H]2O[C@H](CO)[C@@H](O)[C@H]2O)c1N [Acadesine] | 152 Å² |  |  |
| CC(=O)O[C@H](CC(=O)[O-])C[N+](C)(C)C [Acetylcarnitine] | 142 Å² |  | collision cross section (N2) ([2]; [M+H]+): 143 Å² |
| Nc1ncnc2nc[nH]c12 [Adenine] | 119 Å² |  | collision cross section (N2) ([2]; [M+H]+): 125.1 Å²; collision cross section (N2) ([3]; [M+H]+): 127.9 Å² |
| Nc1ncnc2c1ncn2[C@@H]1O[C@H](CO)[C@@H](O)[C@H]1O [Adenosine] | 151 Å² |  | collision cross section (N2) ([2]; [M+H]+): 155.7 Å²; collision cross section (N2) ([3]; [M+H]+): 156.97 Å²; collision cross section (N2) ([3]; [M+Na]+): 170.07 Å² |
| NC(=O)C[C@H](N)C(=O)O [Asparagine] | 118 Å² |  |  |
| Nc1ccn([C@@H]2O[C@H](COP(=O)(O)O)[C@@H](O)[C@H]2O)c(=O)n1 [CMP] | 163 Å² |  |  |
| N[C@@H](CS)C(=O)O [Cysteine] | 113 Å² |  |  |
| N[C@@H](CSSC[C@H](N)C(=O)O)C(=O)O [Cystine] | 145 Å² |  |  |
| Nc1ccn([C@@H]2O[C@H](CO)[C@@H](O)[C@H]2O)c(=O)n1 [Cytidine] | 148 Å² |  | collision cross section (N2) ([2]; [M+Na]+): 159.5 Å² |
| CN(C)CC(=O)O [Dimethylglycine] | 116 Å² |  | collision cross section (N2) ([2]; [M+H]+): 119.7 Å² |
| Nc1nc(=O)c2nc(CNc3ccc(C(=O)N[C@@H](CCC(=O)O)C(=O)O)cc3)cnc2[nH]1 [Folic acid] |  |  | collision cross section (N2) ([1]; [M+Na]+): 202 Å² |
| Nc1nc(=O)c2ncn([C@@H]3O[C@H](COP(=O)(O)OP(=O)(O)OP(=O)(O)O)[C@@H](O)[C@H]3O)c2[nH]1 [GTP] | 196 Å² |  |  |
| N[C@@H](CCC(=O)O)C(=O)O [Glutamic acid] | 123 Å² |  |  |
| NC(=O)CC[C@H](N)C(=O)O [Glutamine] | 124 Å² |  | collision cross section (N2) ([3]; [M+H]+): 133.45 Å²; collision cross section (N2) ([3]; [M+Na]+): 138.11 Å² |
| Nc1nc(=O)c2ncn([C@@H]3O[C@H](CO)[C@@H](O)[C@H]3O)c2[nH]1 [Guanosine] | 160 Å² |  | collision cross section (N2) ([2]; [M+Na]+): 174.6 Å²; collision cross section (N2) ([3]; [M+H]+): 165.02 Å²; collision cross section (N2) ([3]; [M+Na]+): 177.25 Å² |
| N[C@@H](Cc1cnc[nH]1)C(=O)O [Histidine] | 127 Å² |  |  |
| N[C@@H](CCS)C(=O)O [Homocysteine] | 124 Å² |  | collision cross section (N2) ([3]; [M+H]+): 130.53 Å² |
| O=C(O)[C@@H]1C[C@@H](O)CN1 [Hydroxyproline] | 122 Å² |  | collision cross section (N2) ([2]; [M+H]+): 128.1 Å² |
| CCCCCCCC/C=C/CCCCCCCC(=O)OC[C@@H](O)COP(=O)([O-])OCC[NH3+] [LPE(18:1/0:0)] |  | 211.1 Å² | collision cross section (N2) ([4]; [M+H]+): 214.35 Å²; collision cross section (N2) ([4]; [M+Na]+): 219.17 Å² |
| CCCCCCCCC1CC1CCCCCCCC(=O)OC[C@@H](O)COP(=O)([O-])OCC[NH3+] (stereo partly drawn) [LPE(19:1/0:0)] |  | 214.97 Å² | collision cross section (N2) ([4]; [M+H]+): 219.65 Å²; collision cross section (N2) ([4]; [M+Na]+): 225.77 Å² |
| CCCCCCCCCCCCCCC(=O)OC[C@@H](O)COP(=O)(O)OCC(O)CO (stereo partly drawn) [LPG(15:0)] |  | 209.66 Å² |  |
| CCCCCCCCCCCCCCCC(=O)O[C@H](CO)COP(=O)(O)OCC(O)CO (stereo partly drawn) [LPG(16:0)] |  | 213.25 Å² |  |
| CCCCCC/C=C/CCCCCCCC(=O)O[C@H](CO)COP(=O)(O)OCC(O)CO (stereo partly drawn) [LPG(16:1)] |  | 209.98 Å² |  |

| Compound | collision cross section (N2) ([1]; [M+H]+) | collision cross section (N2) ([4]; [M-H]-) | also measured |
| --- | --- | --- | --- |
| CCCCCCC1CC1CCCCCCCC(=O)O[C@H](CO)COP(=O)(O)OCC(O)CO (stereo partly drawn) [LPG(17:1)] |  | 213.68 Å² |  |
| CCCCCCCC/C=C/CCCCCCCC(=O)O[C@H](CO)COP(=O)(O)OCC(O)CO (stereo partly drawn) [LPG(18:1)] |  | 217.26 Å² |  |
| CC(C)C[C@H](N)C(=O)O [Leucine] | 128 Å² |  |  |
| OC[C@H]1OC(O)[C@@H](O)[C@@H](O)[C@@H]1O (stereo partly drawn) [Mannose] |  |  | collision cross section (N2) ([1]; [M+Na]+): 138 Å² |
| C[C@@](O)(CCO)CC(=O)O [Mevalonic acid] |  |  | collision cross section (N2) ([1]; [M+Na]+): 128 Å² |
| NC(=O)c1cccnc1 [Niacinamide] | 118 Å² |  |  |
| CCCCCCCCCCCCCCCC(=O)OCC(COP(=O)(O)O)OC(=O)CCCCCCCC1CC1CCCC (stereo not drawn) [PA(31:1)] |  | 245.76 Å² |  |
| CCCCCC/C=C\CCCCCCCC(=O)OCC(COP(=O)(O)O)OC(=O)CCCCCCC/C=C\CCCCCC (stereo not drawn) [PA(32:2)] |  | 247.47 Å² |  |
| CCCCCCCCCCCCCCCC(=O)OCC(COP(=O)(O)O)OC(=O)CCCCCCCC1CC1CCCCCC (stereo not drawn) [PA(33:1)] |  | 252.33 Å² |  |
| CCCCCCCCCCCCCCCC(=O)OCC(COP(=O)(O)O)OC(=O)CCCCCCCC1CC1CCCCCCCC (stereo not drawn) [PA(35:1)] |  | 258.7 Å² |  |
| CCCCCC/C=C\CCCCCCCC(=O)OCC(COP(=O)(O)O)OC(=O)CCCCCCCC1CC1CCCCCCCC (stereo not drawn) [PA(35:2)] |  | 256.82 Å² |  |
| CCCCCC/C=C\CCCCCCCC(=O)OCC(COP(=O)(O)OCCN)OC(=O)CCCCCCCCCCCCCCC (stereo not drawn) [PE(32:1)] |  | 256.09 Å² | collision cross section (N2) ([4]; [M+H]+): 268.72 Å² |
| CCCCCC/C=C\CCCCCCCC(=O)OCC(COP(=O)(O)OCCN)OC(=O)CCCCCCCC1CC1CCCCCC (stereo not drawn) [PE(33:2)] |  | 257.69 Å² | collision cross section (N2) ([4]; [M+H]+): 268.71 Å² |
| CCCCCCCC/C=C\CCCCCCCC(=O)OC(COC(=O)CCCCCCCCCCCCCCC)COP(=O)(O)OCCN (stereo not drawn) [PE(34:1)] |  | 263.99 Å² | collision cross section (N2) ([4]; [M+H]+): 275.45 Å² |
| CCCCCCCCCCCCCCCC(=O)OCC(COP(=O)(O)OCCN)OC(=O)CCCCCCCC1CC1CCCCCCCC (stereo not drawn) [PE(35:1)] |  | 267.54 Å² | collision cross section (N2) ([4]; [M+H]+): 279.52 Å² |
| CCCCCCCCCCCCCCCC(=O)OCC(COP(=O)(O)OCC(O)CO)OC(=O)CCCCCCCC1CC1CCCC (stereo not drawn) [PG(31:1)] |  | 259.19 Å² | collision cross section (N2) ([4]; [M+Na]+): 273.08 Å² |
| CCCCCC/C=C\CCCCCCCC(=O)OCC(COP(=O)(O)OCC(O)CO)OC(=O)CCCCCCCC1CC1CCCCCC (stereo not drawn) [PG(33:2)] |  | 264.54 Å² | collision cross section (N2) ([4]; [M+Na]+): 275.67 Å² |
| CCCCCCCCCCCCCCCC(=O)OCC(COP(=O)(O)OCC(O)CO)OC(=O)CCCCCCCC1CC1CCCCCCCC (stereo not drawn) [PG(35:1)] |  | 273.44 Å² | collision cross section (N2) ([4]; [M+Na]+): 287.26 Å² |
| CCCCCCCC/C=C\CCCCCCCC(=O)OCC(COP(=O)(O)OCC(O)CO)OC(=O)CCCCCCC/C=C\CCCCCCCC (stereo not drawn) [PG(36:2)] |  | 275.05 Å² | collision cross section (N2) ([4]; [M+Na]+): 283.87 Å² |
| C=C(OP(=O)(O)O)C(=O)O [Phosphoenolpyruvate] |  |  | collision cross section (N2) ([1]; [M+Na]+): 131 Å² |
| O=C(O)[C@@H]1CCCN1 [Proline] | 118 Å² |  |  |
| C[C@@H](O)[C@H](N)C(=O)O [Threonine] | 122 Å² |  |  |
| Nc1ncnc2c1ncn2[C@H]1C[C@H](O)[C@@H](COP(=O)(O)O)O1 [dAMP] | 164 Å² |  |  |
| Nc1ccn([C@H]2C[C@H](O)[C@@H](COP(=O)(O)O)O2)c(=O)n1 [dCMP] |  |  | collision cross section (N2) ([1]; [M+Na]+): 161 Å² |
| N[C@@H](CCC(=O)N[C@@H](CSSC[C@H](NC(=O)CC[C@H](N)C(=O)O)C(=O)NCC(=O)O)C(=O)NCC(=O)O)C(=O)O [glutathione disulfide] | 227 Å² |  |  |
| CCCCCCCCCCCCCCCC(=O)OC(CC(=O)[O-])C[N+](C)(C)C (stereo not drawn) [palmitoylcarnitine] | 217 Å² |  |  |
| Cc1ncc(C[n+]2csc(CCO)c2C)c(N)n1 [thiamine] |  |  | collision cross section (N2) ([1]; [M]+): 159 Å² |
